The test in a line: APP processing: AlphaLisa assay of secreted Aβ40 and Aβ42 from SP4CT cells. In kind it is cell-based. The conditions noted are these: Homo sapiens, SH-SY5Y cells expressing amyloid β protein (SP4CT cells). How it is done:
APP Processing (Assay Quantitates Secreted Aβ Analytes from Cell Lines):
The effect of compounds on the abundance of Aβ40 and Aβ42 peptides generated from SH-SY5Y cells expressing amyloid β protein (SP4CT cells) are determined by an AlphaLisa™ assay. Analogous to an ELISA assay, generation of […] AlphaLisa™ assay requires “donor” and “acceptor” beads to be brought in close proximity by specific antibody recognition of either Aβ40 or Aβ42 peptides. The assay is accomplished by removing media from compound-treated SP4CT cells to two different microplates, followed by the addition of donor beads conjugated with streptavidin binding a biotinylated anti-amyloid β monocolonal antibody (clone 4G8). Acceptor beads directly conjugated with anti-Aβ40 monoclonal antibody (G210) are added to one microplate and anti-Aβ42 monoclonal antibody (12F4) acceptor beads were added to the other. Abundance of Aβ40 and Aβ42 is directly proportional to the luminescent signal generated following excitation of donor beads by laser light.

The mark [1] stands for this setting: read-out: IC50, inhibition of production of Aβ40 peptide.
[2] abbreviates: read-out: IC50, inhibition of production of Aβ42 peptide.

Structures are written as SMILES. pIC50: −log10 of the molar value. Like-named read-outs stand apart in the source and are kept apart here.

With `CCn1nc(-c2cccc(C(C)(C)NS(=O)(=O)CC(F)(F)F)c2)cc1Oc1ccc(F)cc1` [Example 56, N-(1-{3-[1-ethyl-5-(4-fluorophenoxy)-1H-pyrazol-3-yl]phenyl}-1-methylethyl)-2,2,2-trifluoroethanesulfonamide], the pIC50 runs as follows: under setting [1], above 6.70; under setting [2], above 6.70.
Regarding `CCn1nc(-c2cccc(C(C)(C)NS(=O)(=O)CC(F)(F)F)c2)cc1Oc1ccccc1` [Example 57, N-{1-[3-(1-ethyl-5-phenoxy-1H-pyrazol-3-yl)phenyl]-1-methylethyl}-2,2,2-trifluoroethanesulfonamide], the pIC50 under setting [1] was above 6.70 and the pIC50 under setting [2] is above 6.70.
In the case of `CCn1nc(-c2cccc(C(C)(C)NS(=O)(=O)CC(F)(F)F)c2)cc1Oc1ccc(C(C)C)cc1` [Example 58, N-(1-{3-[1-ethyl-5-(4-isopropylphenoxy)-1H-pyrazol-3-yl]phenyl}-1-methylethyl)-2,2,2-trifluoroethanesulfonamide], the pIC50 runs as follows: under setting [1], above 6.70; under setting [2], above 6.70.
`CCn1nc(-c2cccc(C(C)(C)NS(=O)(=O)CC(F)(F)F)c2)cc1Oc1ccc(C)cc1` [Example 59, N-(1-{3-[1-ethyl-5-(4-methylphenoxy)-1H-pyrazol-3-yl]phenyl}-1-methylethyl)-2,2,2-trifluoroethanesulfonamide]: the pIC50 was above 6.70 under setting [1] and above 6.70 under setting [2].
Turning to `CCn1nc(-c2cccc(C(C)(C)NS(=O)(=O)CC(F)(F)F)c2)cc1Oc1ccc(C(C)(C)C)cc1` [Example 60, N-(1-{3-[5-(4-tert-butylphenoxy)-1-ethyl-1H-pyrazol-3-yl]phenyl}-1-methylethyl)-2,2,2-trifluoroethanesulfonamide], the pIC50 under setting [1] is above 6.70 and the pIC50 under setting [2] is above 6.70.
For `CCn1nc(-c2cccc(C(C)(C)NS(=O)(=O)CC(F)(F)F)c2)cc1Oc1ccc(C=O)cc1` [Example 61, N-(1-{3-[1-ethyl-5-(4-formylphenoxy)-1H-pyrazol-3-yl]phenyl}-1-methylethyl)-2,2,2-trifluoroethanesulfonamide], the pIC50 is above 6.70 under setting [1] and above 6.70 under setting [2].
As for `CCn1nc(-c2cccc(C(C)(C)NS(=O)(=O)CC(F)(F)F)c2)cc1Oc1ccc(CO)cc1` [Example 62, N-[1-(3-{1-ethyl-5-[4-(hydroxymethyl)phenoxy]-1H-pyrazol-3-yl}phenyl)-1-methylethyl]-2,2,2-trifluoroethanesulfonamide], the pIC50 runs as follows: under setting [1], above 6.70; under setting [2], above 6.70.
Take `CCn1nc(-c2cccc(C(C)(C)NS(=O)(=O)CC(F)(F)F)c2)cc1Oc1ccc(CF)cc1` [Example 63, N-[1-(3-{1-ethyl-5-[4-(fluoromethyl)phenoxy]-1H-pyrazol-3-yl}phenyl)-1-methylethyl]-2,2,2-trifluoroethanesulfonamide]: the pIC50 under setting [1] is above 6.70 and the pIC50 under setting [2] is above 6.70.
Consider `CCn1nc(-c2cccc(C(C)(C)NS(=O)(=O)CC(F)(F)F)c2)cc1Oc1ccc(C(F)F)cc1` [Example 64, N-[1-(3-{5-[4-(difluoromethyl)phenoxy]-1-ethyl-1H-pyrazol-3-yl}phenyl)-1-methylethyl]-2,2,2-trifluoroethanesulfonamide], for which the pIC50 was above 6.70 under setting [1] and above 6.70 under setting [2].
As for `CCn1nc(-c2cccc(C(C)(C)NS(=O)(=O)CC(F)(F)F)c2)cc1Oc1ccc(C(C)O)cc1` (centres unmarked) [Example 65, N-[1-(3-{1-ethyl-5-[4-(1-hydroxyethyl)phenoxy]-1H-pyrazol-3-yl}phenyl)-1-methylethyl]-2,2,2-trifluoroethanesulfonamide], the pIC50 reads like this: under setting [1], above 6.70; under setting [2], above 6.70.
Turning to `CCn1nc(-c2cccc(C(C)(C)NS(=O)(=O)CC(F)(F)F)c2)cc1Oc1ccc(C(O)C(C)C)cc1` (centres unmarked) [Example 66, N-[1-(3-{1-ethyl-5-[4-(1-hydroxy-2-methylpropyl)phenoxy]-1H-pyrazol-3-yl}phenyl)-1-methylethyl]-2,2,2-trifluoroethanesulfonamide], the pIC50 runs as follows: under setting [1], above 6.70; under setting [2], above 6.70.
Consider `CCC(O)c1ccc(Oc2cc(-c3cccc(C(C)(C)NS(=O)(=O)CC(F)(F)F)c3)nn2CC)cc1` (centres unmarked) [Example 67, N-[1-(3-{1-ethyl-5-[4-(1-hydroxypropyl)phenoxy]-1H-pyrazol-3-yl}phenyl)-1-methylethyl]-2,2,2-trifluoroethanesulfonamide], for which the pIC50 was above 6.70 under setting [1] and above 6.70 under setting [2].
In the case of `CCn1nc(-c2cccc(C(C)(C)NS(=O)(=O)CC(F)(F)F)c2)cc1Oc1ccc(C(C)F)cc1` (centres unmarked) [Example 68, N-[1-(3-{1-ethyl-5-[4-(1-fluoroethyl)phenoxy]-1H-pyrazol-3-yl}phenyl)-1-methylethyl]-2,2,2-trifluoroethanesulfonamide], the pIC50 is, setting by setting: under setting [1], above 6.70; under setting [2], above 6.70.
Regarding `CCn1nc(-c2cccc(C(C)(C)NS(=O)(=O)CC(F)(F)F)c2)cc1Oc1ccc(C(C)=O)cc1` [Example 69, N-(1-{3-[5-(4-acetylphenoxy)-1-ethyl-1H-pyrazol-3-yl]phenyl}-1-methylethyl)-2,2,2-trifluoroethanesulfonamide], the pIC50 under setting [1] is above 6.70 and the pIC50 under setting [2] is above 6.70.
Regarding `CCn1nc(-c2cccc(C(C)(C)NS(=O)(=O)CC(F)(F)F)c2)cc1Oc1ccc(C(C)(C)O)cc1` [Example 70, N-[1-(3-{1-ethyl-5-[4-(1-hydroxy-1-methylethyl)phenoxy]-1H-pyrazol-3-yl}phenyl)-1-methylethyl]-2,2,2-trifluoroethanesulfonamide], the pIC50 runs as follows: under setting [1], above 6.70; under setting [2], above 6.70.
As for `CCn1nc(-c2cccc(C(C)(C)NS(=O)(=O)CC(F)(F)F)c2)cc1Oc1ccc(C(O)C(F)(F)F)cc1` (centres unmarked) [Example 71, N-[1-(3-{1-ethyl-5-[4-(2,2,2-trifluoro-1-hydroxyethyl)phenoxy]-1H-pyrazol-3-yl}phenyl)-1-methylethyl]-2,2,2-trifluoroethanesulfonamide], the pIC50 under setting [1] was above 6.70 and the pIC50 under setting [2] was above 6.70.
In the case of `CCn1nc(-c2cccc(C(C)(C)NS(=O)(=O)CC(F)(F)F)c2)cc1Oc1ccc(C(F)C(F)(F)F)cc1` (centres unmarked) [Example 72, N-[1-(3-{1-ethyl-5-[4-(1,2,2,2-tetrafluoroethyl)phenoxy]-1H-pyrazol-3-yl}phenyl)-1-methylethyl]-2,2,2-trifluoroethanesulfonamide], the pIC50 is above 6.70 under setting [1] and above 6.70 under setting [2].
Regarding `CCn1nc(-c2cccc(C(C)(C)NS(=O)(=O)CC(F)(F)F)c2)cc1Oc1ccc(C(=O)C(F)(F)F)cc1` [Example 73, N-[1-(3-{1-ethyl-5-[4-(trifluoroacetyl)phenoxy]-1H-pyrazol-3-yl}phenyl)-1-methylethyl]-2,2,2-trifluoroethanesulfonamide], the pIC50 under setting [1] is above 6.70 and the pIC50 under setting [2] was above 6.70.
Take `CCn1nc(-c2cccc(C(C)(C)NS(=O)(=O)CC(F)(F)F)c2)cc1Oc1ccc(C(=O)NCC2CCCO2)cc1` (centres unmarked) [Example 74, 4-({1-ethyl-3-[3-(1-methyl-1-{[(2,2,2-trifluoroethyl)sulfonyl]amino}ethyl)phenyl]-1H-pyrazol-5-yl}oxy)-N-(tetrahydrofuran-2-ylmethyl)benzamide]: the pIC50 was above 6.70 under setting [1] and above 6.70 under setting [2].
As to `CCn1nc(-c2cccc(C(C)(C)NS(=O)(=O)CC(F)(F)F)c2)cc1Oc1ccc(-c2nnc(C)o2)cc1` [Example 75, N-[1-(3-{1-ethyl-5-[4-(5-methyl-1,3,4-oxadiazol-2-yl)phenoxy]-1H-pyrazol-3-yl}phenyl)-1-methylethyl]-2,2,2-trifluoroethanesulfonamide], the pIC50 reads like this: under setting [1], above 6.70; under setting [2], above 6.70.
As for `CCn1nc(-c2cccc(C(C)(C)NS(=O)(=O)CC(F)(F)F)c2)cc1Oc1ccc(-c2cnco2)cc1` [Example 76, N-[1-(3-{1-ethyl-5-[4-(1,3-oxazol-5-yl)phenoxy]-1H-pyrazol-3-yl}phenyl)-1-methylethyl]-2,2,2-trifluoroethanesulfonamide], the pIC50 was above 6.70 under setting [1] and above 6.70 under setting [2].
For `CCn1nc(-c2cccc(C(C)(C)NS(=O)(=O)CC(F)(F)F)c2)cc1Oc1ccc(CNCc2ccccn2)cc1` [Example 77, N-(1-{3-[1-ethyl-5-(4-{[(pyridin-2-ylmethyl)amino]methyl}phenoxy)-1H-pyrazol-3-yl]phenyl}-1-methylethyl)-2,2,2-trifluoroethanesulfonamide], the pIC50 by setting is: under setting [1], above 6.70; under setting [2], above 6.70.
For the compound `CCn1nc(-c2cccc(C(C)(C)NS(=O)(=O)CC(F)(F)F)c2)cc1Oc1ccc(CN2CCOCC2)cc1` [Example 78, N-[1-(3-{1-ethyl-5-[4-(morpholin-4-ylmethyl)phenoxy]-1H-pyrazol-3-yl}phenyl)-1-methylethyl]-2,2,2-trifluoroethanesulfonamide], the pIC50 is above 6.70 under setting [1] and above 6.70 under setting [2].
Turning to `CCn1nc(-c2cccc(C(C)(C)NS(=O)(=O)CC(F)(F)F)c2)cc1Oc1ccc(CNCc2ccccc2)cc1` [Example 79, N-{1-[3-(5-{4-[(benzylamino)methyl]phenoxy}-1-ethyl-1H-pyrazol-3-yl)phenyl]-1-methylethyl}-2,2,2-trifluoroethanesulfonamide], the pIC50 runs as follows: under setting [1], above 6.70; under setting [2], above 6.70.
On to `CCn1nc(-c2cccc(C(C)(C)NS(=O)(=O)CC(F)(F)F)c2)cc1Oc1ccc(CN2CC=C(C(F)(F)F)CC2)cc1` [Example 80, N-(1-{3-[1-ethyl-5-(4-{[4-(trifluoromethyl)-3,6-dihydropyridin-1(2H)-yl]methyl}phenoxy)-1H-pyrazol-3-yl]phenyl}-1-methylethyl)-2,2,2-trifluoroethanesulfonamide], for which the negative-log IC50 (pIC50) was above 6.70 under setting [1] and above 6.70 under setting [2].
